# Entries after “also recorded” stand apart in the source; their conditions may differ.
# How the values were obtained:
# [1] = target: T1, GA activity of NIH 3T3 cells stably expressing Dbl or Cdc42(F28L) (Mus musculus, UniProt D3Z7P3); assay: GA activity in mitochondrial fractions of treated transformed NIH 3T3 cells; assay type: cell-based; details: 10 μM, 48 hours
# T1 construct: endogenous in cells; host or cells: NIH 3T3 cells stably expressing Dbl or Cdc42(F28L); mitochondrial fraction
# T1 sequence (D3Z7P3 55-603 isoform D3Z7P3-2): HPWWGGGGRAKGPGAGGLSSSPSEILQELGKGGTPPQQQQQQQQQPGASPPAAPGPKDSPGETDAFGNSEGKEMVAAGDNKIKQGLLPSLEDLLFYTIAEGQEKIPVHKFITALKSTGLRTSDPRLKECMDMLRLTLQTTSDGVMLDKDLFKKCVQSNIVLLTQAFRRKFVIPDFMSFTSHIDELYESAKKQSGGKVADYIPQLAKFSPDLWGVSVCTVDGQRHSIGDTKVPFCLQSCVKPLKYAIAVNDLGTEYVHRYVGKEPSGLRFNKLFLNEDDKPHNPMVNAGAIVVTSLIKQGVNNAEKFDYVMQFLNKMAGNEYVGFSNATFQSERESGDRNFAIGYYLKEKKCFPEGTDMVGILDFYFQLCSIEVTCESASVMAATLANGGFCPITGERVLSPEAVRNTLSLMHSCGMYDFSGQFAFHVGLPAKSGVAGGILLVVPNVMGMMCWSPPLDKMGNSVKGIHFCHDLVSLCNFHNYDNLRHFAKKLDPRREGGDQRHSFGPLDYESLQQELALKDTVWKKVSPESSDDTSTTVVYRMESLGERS
# Description: 100%=620 moles of glutamine hydrolyzed per minute per mole of enzyme. Data represent the average of 3 experiments (±s.d.). […] Following precipitation of the beads and re-suspension, the samples were analyzed by Western blotting with anti-V5 antibody. […] Data represent the average of 3 experiments (±s.d.). […] Data represent the average of 3 experiments (±s.d.). […] Data represent the average of 3 experiments (±s.d.). FIG. 3E NIH 3T3 cells transiently expressing Dbl were assayed for focus formation in the presence of 10 μM 968 alone or together with 7 mM dimethyl α-ketoglutarate. […] 100%=680 nM glutamine hydrolyzed per minute per 10^5 cells. Data are the average of 3 experiments (±s.d.). […] 100%=750 nM glutamine hydrolyzed per minute per 10^5 cells. Data represent the average of 3 experiments (±s.d.).
# (§1) FIGS. 4A-E illustrate the role of glutaminase C activity in cellular transformation. […] Data represent the average of 3 experiments (±s.d.). […] Data represent the average of 3 experiments (±s.d.). […] 100% represents the activity measured in untreated Dbl-transformed cells. The data represent the average of 2 experiments. […] 100% represents the activity measured in untreated SKBR3 cells. The data represent the average of 2 experiments. […] Data represent the average of 3 experiments (±s.d.).
# FIGS. 11A-E illustrate the effects of different treatments on GA activity. […] The addition of Pi stimulated the GA activity in control 3T3 cells, Dbl-expressing cells, and Cdc42(F28L)-expressing cells by ˜6-fold, 2-fold, and 3-fold, respectively. 100% represents the Pi-stimulated activity measured for Dbl-transformed cells that were not treated with 968. Data is the average of 3 experiments (±s.d.). […] The addition of Pi stimulated the GA activity of HMECs, MDA-MB231 cells, and SKBR3 cells by ˜5-fold, 2-fold, and 1.4-fold, respectively. 100% represents the Pi-stimulated activity for SKBR3 cells that were not treated with 968. Data are the average of 3 experiments (±s.d.). […] Mitochondrial fractions were prepared from equal numbers of cells and assayed for GA activity in the presence or absence of 133 mM Pi. The data are plotted as the percentage of GA activity measured for untreated SKBR3 cells and represent the average of 2 experiments. […] 100% represents the Pi-stimulated activity measured for untreated Dbl-transformed cells. The data represent the average of 2 experiments. […] 100% represents the Pi-stimulated activity for untreated SKBR3 cells. The data represent the average of 2 experiments.
# Dbl expressing NIH 3T3 cells were treated for 48 hours in the presence or absence of 968 (10 μM), Bay 11-7082 (2 μM) or Rapamycin (100 nM). Mitochondria were then isolated from the treated cells and assayed for glutaminase activity in the absence or presence of phosphate.
# Mitochondrial preparations were obtained using the mitochondria isolation kit from QIAGEN (Cat #37612). A suspension containing 2×10^7 cells was transferred into a 50 ml conical tube and centrifuged at 500×g for 10 minutes at 4° C. The pellets were resuspended in 2 ml of ice-cold lysis buffer (supplied by QIAGEN) and incubated for 10 minutes at 4° C. using an end-over-end shaker. The lysates were centrifuged at 1000×g for 10 minutes at 4° C., and the pellets were resuspended in a buffer supplied by the manufacturer and disrupted completely by using a blunt-ended, 23-gauge needle and a syringe, followed by centrifugation at 6000×g for 20 minutes at 4° C. […]
# V5-tagged wild-type GAC = target: T2, V5-tagged wild-type GAC (Mus musculus, UniProt D3Z7P3); assay: Glutaminase activity of V5-GAC immunoprecipitated from treated Dbl-transformed cells; assay type: cell-based; details: 10 μM, 48 hours
# T2 construct: expressed in transfected cells; host or cells: NIH 3T3 cells (stably expressing Dbl, or parental), transient transfection
# T2 sequence (D3Z7P3 55-603 isoform D3Z7P3-2 limits assumed): T1 sequence (D3Z7P3 55-603 isoform D3Z7P3-2)
# Excerpt: as §1
# NIH 3T3 cells stably expressing oncogenic Dbl were transiently transfected with DNA encoding VS-tagged GAC, and cells were treated with either 968 or BA-968 (10 μM) as indicated for 48 hours. The cells were then harvested and the ectopically expressed GAC was isolated by immunoprecipitation via the V5 tag. The samples were then assayed for glutaminase activity in the absence of phosphate (top panel) and the relative expression levels of V5-GAC was determined by Western blotting using an anti-V5 antibody (bottom panel).
# Next the effect of the substitution of an alanine for a serine at amino acid 103 on the enzymatic activity of GAC was examined, as well as its sensitivity to the small molecule, 968. […] Following transfection, the cells were treated for 48 hours with 968 (10 μM) and then harvested. […]
structure (smiles),measurement,setting,value
"CN(C)c1ccc(C2Nc3ccc4ccccc4c3C3=C2C(=O)CC(C)(C)C3)cc1Br (stereo not shown) [Compound 968, 5-[3-bromo-4-(dimethylamino)phenyl]-2,2-dimethyl-2,3,5,6-tetrahydrobenzo[a]]",GA activity of transformed cells,[1],inhibits their GA activity
same,sensitivity of basal versus phosphate-stimulated GA activity,[1]; with or without 133 mM Pi,basal activity being more sensitive than the phosphate-stimulated activity
same,basal glutaminase activity of wild-type GAC,V5-tagged wild-type GAC,susceptible to treatment
same,GA activity of immunoprecipitated V5-GAC,V5-tagged wild-type GAC; absence of phosphate,inhibited; also recorded: effective inhibitors of GAC activity

# From patent US20130252983A1, “ACTIVATING PHOSPHORYLATION SITE ON GLUTAMINASE C” (CORNELL UNIVERSITY, priority 2010, published 2013)
